In patent US7960131B2, “Functional genomic pore assay for mixed cell populations” (Wisconsin Alumni Research Foundation, priority 2003, dated 2011):
Substitutions are numbered along the chain they refer to.

How the values were obtained:
Assay type in all cases: cell-based
P2X7-G150R = molecular target: T1, P2X7-G150R (Homo sapiens, UniProt Q99572, G150R); assay: YO-PRO-1 uptake fluorimetric plate assay in transfected HEK 293 cells, P2X7-G150R; details: G150R (G474A) mutant, also in more permissive buffer lacking NaCl
T1 construct: expressed in transfected cells
T1 sequence (Q99572 1-595 G150R): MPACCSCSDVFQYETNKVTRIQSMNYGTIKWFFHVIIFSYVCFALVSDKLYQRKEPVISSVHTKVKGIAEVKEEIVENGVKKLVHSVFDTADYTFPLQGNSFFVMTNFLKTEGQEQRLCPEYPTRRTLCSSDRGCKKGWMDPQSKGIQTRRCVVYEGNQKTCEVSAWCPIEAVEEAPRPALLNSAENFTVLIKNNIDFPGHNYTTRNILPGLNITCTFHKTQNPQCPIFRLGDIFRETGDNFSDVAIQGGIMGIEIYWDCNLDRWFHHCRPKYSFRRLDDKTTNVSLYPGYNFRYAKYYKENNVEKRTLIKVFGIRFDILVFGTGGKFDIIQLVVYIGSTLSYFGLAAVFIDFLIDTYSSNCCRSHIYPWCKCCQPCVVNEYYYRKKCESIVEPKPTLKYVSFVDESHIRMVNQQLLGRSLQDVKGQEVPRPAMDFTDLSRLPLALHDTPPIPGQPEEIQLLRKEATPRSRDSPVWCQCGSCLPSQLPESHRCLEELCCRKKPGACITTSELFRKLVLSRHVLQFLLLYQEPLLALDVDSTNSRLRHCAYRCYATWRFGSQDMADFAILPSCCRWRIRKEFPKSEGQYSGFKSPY
Source text: (§1) Recombinant Expression and Functional Characterization of Variant P2RX7 Alleles. A pcDNA3 expression vector containing a cloned human P2RX7 cDNA associated with normal pore activity was subjected to point mutagenesis using the Quick Change Kit (Stratagene Inc., city, state) to create the variants P2X7-G150R, P2X7-Q460R, and P2X7-E496A. HEK 293 cells were transfected by the Superfect liposomal method and stable populations were selected by G418 resistance. Expression of P2X7 mRNA and protein in unstimulated transfected HEK cell cultures was verified by RT-PCR and immunoblotting as previously described.
(§2) YO-PRO-1 fluorescence was measured by a Synergy-HT fluorescent plate reader (Biotek, city, state) using X±Y nm excitation and A±B emission filters.

P2X7 wild type = molecular target: T2, P2X7 wild type (Homo sapiens, UniProt Q99572); assay: YO-PRO-1 uptake fluorimetric plate assay in transfected HEK 293 cells, P2X7 wild type; details: HEK cells expressing P2X7 wild type, HEPES-buffered saline
T2 construct: expressed in transfected cells
T2 sequence (Q99572 1-595): T1 sequence (Q99572 1-595 G150R) with R150G
Source text: as §1, §2

P2X7-E496A = molecular target: T3, P2X7-E496A (Homo sapiens, UniProt Q99572, E496A); assay: YO-PRO-1 uptake fluorimetric plate assay in transfected HEK 293 cells, P2X7-E496A; details: E496A variant
T3 construct: expressed in transfected cells
T3 sequence (Q99572 1-595 E496A): T1 sequence (Q99572 1-595 G150R) with R150G, E496A
Source text: as §1, §2

P2X7-Q460R = molecular target: T4, P2X7-Q460R (Homo sapiens, UniProt Q99572, Q460R); assay: YO-PRO-1 uptake fluorimetric plate assay in transfected HEK 293 cells, P2X7-Q460R
T4 construct: expressed in transfected cells
T4 sequence (Q99572 1-595 Q460R): T1 sequence (Q99572 1-595 G150R) with R150G, Q460R
Source text: as §1, §2

## 2′-3′-O-(4-benzoylbenzoyl)-adenosine 5′-triphosphate [Bz-ATP]
P2X7-G150R
  agonist stimulated increase in YO-PRO-1 fluorescence: loss of pore function
P2X7-G150R; listed as BzATP
  agonist stimulated increase in YO-PRO-1 fluorescence: no agonist stimulated increase in fluorescence
P2X7 wild type
  EC50: 30 µM
  increase of YO-PRO-1 fluorescence by Bz-ATP stimulation: roughly four
P2X7-E496A; potassium glutamate buffer
  increase in YO-PRO-1 fluorescence: approximately half-maximal increase
P2X7-E496A; saline-containing buffers
  agonist-inducible pore activity: lacking agonist-inducible pore activity
P2X7-Q460R
  EC50: ~30 µM
  increase in YO-PRO-1 fluorescence over baseline: 8 fold
